Experimental data: ChEMBL document CHEMBL6092157, “PET imaging assist investigation of HDAC6 expression change in MDD and evaluating antidepressant efficacy of a newly developed HDAC6 inhibitor” (Eur J Med Chem, 2024)
Blank lines part the entries; values can stand above or below the compound they belong to. Activity calls are given as the source filed them. The calls are words filed in the database; no cut-off is given here.

Columns and labels:
[1] = Drug uptake in liver of chronic unpredictable mild stress C57BL/6 mouse model by PET imaging analysis; assay type: ADME, tissue-based; conditions: in vivo
[2] = Drug uptake in striatum of chronic unpredictable mild stress C57BL/6 mouse model by PET imaging analysis; assay type: ADME, tissue-based; conditions: in vivo
[3] = Drug uptake in spleen of chronic unpredictable mild stress C57BL/6 mouse model by PET imaging analysis; assay type: ADME, tissue-based; conditions: in vivo
[4] = Drug uptake in lung of chronic unpredictable mild stress C57BL/6 mouse model by PET imaging analysis; assay type: ADME, tissue-based; conditions: in vivo
[5] = Drug uptake in hypothalamus of chronic unpredictable mild stress C57BL/6 mouse model by PET imaging analysis; assay type: ADME, tissue-based; conditions: in vivo
[6] = Drug uptake in kidney of chronic unpredictable mild stress C57BL/6 mouse model by PET imaging analysis; assay type: ADME, tissue-based; conditions: in vivo
[7] = Drug uptake in heart of chronic unpredictable mild stress C57BL/6 mouse model by PET imaging analysis; assay type: ADME, tissue-based; conditions: in vivo
[8] = Drug uptake in hippocampus of chronic unpredictable mild stress C57BL/6 mouse model by PET imaging analysis; assay type: ADME, tissue-based; conditions: in vivo
[9] = Ratio of drug concentration in brain to plasma of C57BL/6 mouse at 1 mg/kg, ip measured for 4 hrs by LC-MS/MS analysis; assay type: ADME, organism-based; conditions: read-out: BPR
[10] = AUC (0 to infinity) in C57BL/6 mouse at 20 mg/kg, ip by LC-MS/MS analysis; assay type: ADME, organism-based; conditions: in vivo
[11] = Drug concentration in brain of C57BL/6 mouse at 1 mg/kg, ip measured for 0.5 hrs by LC-MS/MS analysis; assay type: ADME, organism-based; conditions: read-out: Ct
[12] = MRT (0 to infinity) in C57BL/6 mouse at 20 mg/kg, iv by LC-MS/MS analysis; assay type: ADME, organism-based; conditions: in vivo
[13] = […] bioavailability in C57BL/6 mouse at 20 mg/kg by LC-MS/MS analysis; assay type: ADME, organism-based; conditions: in vivo
[14] = MRT (0 to infinity) in C57BL/6 mouse at 20 mg/kg, ip by LC-MS/MS analysis; assay type: ADME, organism-based; conditions: in vivo
[15] = target: T1, Protein deacetylase HDAC6 (Mus musculus) (UniProt Q9Z2V5); assay: In vivo inhibition of HDAC6 in brain of chronic unpredictable mild stress C57BL/6 mouse model by IHC analysis; assay type: functional, organism-based
T1 sequence (whole entry): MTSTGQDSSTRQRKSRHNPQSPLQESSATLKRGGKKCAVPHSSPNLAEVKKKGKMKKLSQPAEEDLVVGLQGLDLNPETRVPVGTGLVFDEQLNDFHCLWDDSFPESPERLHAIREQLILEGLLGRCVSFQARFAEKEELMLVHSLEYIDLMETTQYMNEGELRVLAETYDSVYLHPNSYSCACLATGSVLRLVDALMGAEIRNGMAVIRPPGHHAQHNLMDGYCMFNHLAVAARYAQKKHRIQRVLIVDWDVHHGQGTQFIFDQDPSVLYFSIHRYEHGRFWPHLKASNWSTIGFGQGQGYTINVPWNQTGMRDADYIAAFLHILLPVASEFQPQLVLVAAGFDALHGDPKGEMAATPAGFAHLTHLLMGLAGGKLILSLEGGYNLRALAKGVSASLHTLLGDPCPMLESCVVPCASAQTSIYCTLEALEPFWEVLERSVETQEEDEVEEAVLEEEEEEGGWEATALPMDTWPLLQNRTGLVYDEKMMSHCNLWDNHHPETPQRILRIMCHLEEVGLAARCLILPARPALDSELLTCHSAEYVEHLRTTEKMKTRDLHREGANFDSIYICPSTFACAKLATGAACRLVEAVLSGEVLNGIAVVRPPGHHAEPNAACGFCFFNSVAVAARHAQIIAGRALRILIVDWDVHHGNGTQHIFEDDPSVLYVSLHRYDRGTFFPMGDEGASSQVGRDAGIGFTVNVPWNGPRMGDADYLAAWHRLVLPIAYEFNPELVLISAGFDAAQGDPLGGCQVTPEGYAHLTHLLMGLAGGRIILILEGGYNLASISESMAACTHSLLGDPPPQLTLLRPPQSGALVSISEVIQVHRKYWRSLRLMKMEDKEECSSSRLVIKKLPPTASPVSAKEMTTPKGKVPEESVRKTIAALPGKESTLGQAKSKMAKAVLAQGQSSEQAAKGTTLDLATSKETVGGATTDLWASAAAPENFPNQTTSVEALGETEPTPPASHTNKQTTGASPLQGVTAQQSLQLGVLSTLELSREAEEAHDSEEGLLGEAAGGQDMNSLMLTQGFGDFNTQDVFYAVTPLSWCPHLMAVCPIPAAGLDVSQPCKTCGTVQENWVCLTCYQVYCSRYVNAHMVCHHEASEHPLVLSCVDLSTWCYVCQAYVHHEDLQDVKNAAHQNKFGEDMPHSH

[16] = Half life in C57BL/6 mouse at 20 mg/kg, ip by LC-MS/MS analysis; assay type: ADME, organism-based; conditions: in vivo
[17] = Drug concentration in plasma of C57BL/6 mouse at 1 mg/kg, ip measured for 4 hrs by LC-MS/MS analysis; assay type: ADME, organism-based
[18] = Drug concentration in brain of C57BL/6 mouse at 1 mg/kg, ip measured for 1 hr by LC-MS/MS analysis; assay type: ADME, organism-based; conditions: read-out: Ct
Mus musculus [19] = assay: Antidepressant activity in chronic unpredictable mild stress C57BL/6 mouse model assessed as longer duration spent in central area at 20 mg/kg, ip qd for 21 days by open field test; assay type: functional, organism-based; conditions: time 21.0 day
Mus musculus [20] = assay: Antidepressant activity in chronic unpredictable mild stress C57BL/6 mouse model assessed as reduction in immobility time at 20 mg/kg, ip qd for 21 days by tail suspension test; assay type: functional, organism-based; conditions: time 21.0 day
[21] = Toxicity in chronic unpredictable mild stress C57BL/6 mouse model assessed as abnormality in organs at 20 mg/kg, ip qd for 21 days by H and E staining based analysis; assay type: organism-based; conditions: in vivo, 504 h, time 21 day
[22] = Drug concentration in plasma of C57BL/6 mouse at 1 mg/kg, ip measured for 1 hr by LC-MS/MS analysis; assay type: ADME, organism-based
[23] = Cmax in C57BL/6 mouse at 20 mg/kg, ip by LC-MS/MS analysis; assay type: ADME, organism-based; conditions: in vivo
[24] = Drug concentration in brain of C57BL/6 mouse at 1 mg/kg, ip measured for 4 hrs by LC-MS/MS analysis; assay type: ADME, organism-based; conditions: read-out: Ct
Mus musculus [25] = organism: Mus musculus; assay: Upregulation of tubulin acetylation in brain of chronic unpredictable mild stress C57BL/6 mouse model by IHC analysis; assay type: functional, organism-based
[26] = Toxicity in chronic unpredictable mild stress C57BL/6 mouse model assessed as histomorphological changes at 20 mg/kg, ip qd for 21 days; assay type: organism-based; conditions: in vivo, 504 h, time 21 day
[27] = Ratio of drug concentration in brain to plasma of C57BL/6 mouse at 1 mg/kg, ip measured for 1 hr by LC-MS/MS analysis; assay type: ADME, organism-based; conditions: read-out: BPR
Mus musculus [28] = assay: Antidepressant activity in chronic unpredictable mild stress C57BL/6 mouse model assessed as shorter feeding latency to eat at 20 mg/kg, ip qd for 21 days by novelty-suppressed feeding test; assay type: functional, organism-based; conditions: time 21.0 day
[29] = Tmax in C57BL/6 mouse at 20 mg/kg, ip by LC-MS/MS analysis; assay type: ADME, organism-based; conditions: in vivo
[30] = Drug concentration in plasma of C57BL/6 mouse at 1 mg/kg, ip measured for 0.5 hrs by LC-MS/MS analysis; assay type: ADME, organism-based
[31] = Toxicity in chronic unpredictable mild stress C57BL/6 mouse model assessed as animal death at 20 mg/kg, ip qd for 21 days; assay type: organism-based; conditions: in vivo, 504 h, time 21 day
[32] = Toxicity in chronic unpredictable mild stress C57BL/6 mouse model assessed as damage in organs at 20 mg/kg, ip qd for 21 days by H and E staining based analysis; assay type: organism-based; conditions: in vivo, 504 h, time 21 day
[33] = Ratio of drug concentration in brain to plasma of C57BL/6 mouse at 1 mg/kg, ip measured for 0.5 hrs by LC-MS/MS analysis; assay type: ADME, organism-based; conditions: read-out: BPR
[34] = Cmax in C57BL/6 mouse at 20 mg/kg, iv by LC-MS/MS analysis; assay type: ADME, organism-based; conditions: in vivo
[35] = Half life in C57BL/6 mouse at 20 mg/kg, iv by LC-MS/MS analysis; assay type: ADME, organism-based; conditions: in vivo
[36] = AUC (0 to infinity) in C57BL/6 mouse at 20 mg/kg, iv by LC-MS/MS analysis; assay type: ADME, organism-based; conditions: in vivo
Mus musculus [37] = assay: Antidepressant activity in chronic unpredictable mild stress C57BL/6 mouse model assessed as longer duration spent in central area of open field at 20 mg/kg, ip qd for 21 days by open field test; assay type: functional, organism-based; conditions: time 21.0 day

Drug uptake [1]: Active | Drug uptake [2]: Active | Drug uptake [3]: Active | Drug uptake [4]: Active | Drug uptake [5]: Active | Drug uptake [6]: Active | Drug uptake [7]: Active | Drug uptake [8]: Active
SMILES: CN(Cc1ccc(C(=O)NO)cc1[18F])CC12CC3CC(CC(C3)C1)C2

SMILES: Cc1ccc2c(n1)N(Cc1ccc(C(=O)NO)cc1F)CCC2
Kp at 4 h [9]: 2.1 | AUC(0-inf) [10]: 522 ng·h/mL | concentration at 0.5 h [11]: 26.5 ng/mL | MRT inf [12]: 17.4 min | bioavailability [13]: 47.7% | MRT inf [14]: 24 min | inhibition [15]: Active | half-life [16]: 54.6 min | concentration at 4 h [17]: 0.21 ng/mL | concentration at 1 h [18]: 10.3 ng/mL | Activity (Mus musculus [19]): Active | Activity (Mus musculus [20]): Active | Activity [21]: Non-toxic | concentration at 1 h [22]: 2.6 ng/mL | Cmax [23]: 1510 ng/mL | concentration at 4 h [24]: 0.42 ng/mL | Activity (Mus musculus [25]): Active | Activity [26]: Non-toxic | Kp at 1 h [27]: 3.9 | Activity (Mus musculus [28]): Active | Tmax [29]: 4.98 min | concentration at 0.5 h [30]: 3.3 ng/mL | Activity [31]: Non-toxic | Activity [32]: Non-toxic | Kp at 0.5 h [33]: 7.9 | Cmax [34]: 3600 ng/mL | half-life [35]: 33 min | AUC(0-inf) [36]: 1090 ng·h/mL | Activity (Mus musculus [37]): Active
